Assay results reported in ChEMBL document CHEMBL6182838, “Structure-activity relationship expansion and microsomal stability assessment of the 2-morpholinobenzoic acid scaffold as antiproliferative phosphatidylcholine-specific phospholipase C inhibitors” (RSC Med Chem, 2025).

What was measured:
HCT-116 [1] = experiment: Antiproliferative activity against human HCT-116 cells assessed as cell proliferation measured after 3 days incubation followed by incubated 5 hrs with [3H]-thymidine by 3H-thymidine incorporation assay; type: functional, cell-based
MDA-MB-231 [2] = experiment: Antiproliferative activity against human MDA-MB-231 cells assessed as cell proliferation measured after 3 days incubation followed by incubated 5 hrs with [3H]-thymidine by 3H-thymidine incorporation assay; type: functional, cell-based
MDA-MB-231 [3] = experiment: Antiproliferative activity against human MDA-MB-231 cells assessed as cell proliferation at 10 uM measured after 3 days incubation followed by incubated 5 hrs with [3H]-thymidine by 3H-thymidine incorporation assay relative to control; type: functional; settings: MDA-MB-231, 72 h, time 3 day, read-out: Activity
HCT-116 [4] = experiment: Antiproliferative activity against human HCT-116 cells assessed as cell proliferation at 10 uM measured after 3 days incubation followed by incubated 5 hrs with [3H]-thymidine by 3H-thymidine incorporation assay relative to control; type: functional; settings: HCT-116, 72 h, time 3 day, read-out: Activity
[5] = Metabolic stability in Sprague-Dawley rat microsomes assessed as degradation in presence of NADPH at 10 uM measured after 1 hr by HPLC analysis; type: ADME, Microsome
Bacillus cereus = experiment: Inhibition of Bacillus cereus phosphatidylcholine specific phospholipase C (PC-PLC BC) assessed as enzyme activity by measuring formation of resorufin fluorophore 10 uM by Amplex-Red based fluorescence assay relative to control; parameters: scale not given: the % may be the effect or the level left
[6] = Metabolic stability in Sprague-Dawley rat microsomes assessed as degradation in absence of NADPH at 10 uM measured up to 60 mins by HPLC analysis; type: ADME, Microsome
[7] = Metabolic stability in Sprague-Dawley rat microsomes assessed as degradation in presence of NADPH at 10 uM measured up to 60 mins by HPLC analysis; type: ADME, Microsome

Row | Activity (Bacillus cereus) [%] | Compound | growth at 10 µM (MDA-MB-231 [3]) [%] | growth at 10 µM (HCT-116 [4]) [%] | also measured
1 | 45.5 | COc1ccc(CNc2ccc(C(=O)NO)c(N3CCOCC3)c2)cc1 | 76.9 | 91.5 | 
2 | 85.5 | COC(=O)c1cc(NCc2cccc(OC)c2)ccc1C1CCOCC1 | 83.9 | 62.5 | 
3 | 112 | COC(=O)c1cc(NCc2ccc(Cl)cc2)ccc1C1CCOCC1 | 83.8 | 56.7 | 
4 | 107 | O=C(O)c1cc(NCc2ccccc2Cl)ccc1C1CCOCC1 | 111 | 101 | Stability [5]: Stable
5 | 43.4 | O=C(O)c1cc(NCc2ccccc2F)ccc1C1CCOCC1 | 113 | 104 | 
6 | 54.4 | O=C(NO)c1ccc(NCc2ccc(Cl)cc2)cc1N1CCOCC1 | 45.5 | 57.4 | 
7 | 92.5 | O=C(NO)c1cc(NCc2ccc(Cl)cc2)ccc1C1CCOCC1 | 72.2 | 69.9 | 
8 | 112 | COC(=O)c1cc(NCc2ccccc2Br)ccc1C1CCOCC1 | 16.4 | 20.3 | 
9 | 80.4 | COc1ccc(CNc2ccc(C3CCOCC3)c(C(=O)NO)c2)cc1 | 82 | 88.6 | 
10 | 108 | COc1ccccc1CNc1ccc(C2CCOCC2)c(C(=O)O)c1 | 100 | 106 | 
11 | 36.2 | O=C(O)c1cc(NCc2cccc(F)c2)ccc1C1CCOCC1 | 104 | 103 | 
12 | 62.4 | O=C(O)c1ccc(NCc2ccc(F)cc2)cc1N1CCOCC1 | 94.8 | 91.6 | 
13 | 49.2 | O=C(NO)c1ccc(NCc2ccc(F)cc2)cc1N1CCOCC1 | 81.6 | 91.4 | 
14 | 47.5 | O=C(NO)c1ccc(NCc2cccc(Cl)c2)cc1N1CCOCC1 | 39.6 | 48.6 | 
15 | 79.7 | O=C(NO)c1cc(NCc2cccc(Cl)c2)ccc1C1CCOCC1 | 80.1 | 83 | 
16 | 104 | COC(=O)c1cc(NCc2cccc(Cl)c2)ccc1C1CCOCC1 | 48.3 | 37.2 | 

Row | Activity (Bacillus cereus) [%] | Compound | growth at 10 µM (MDA-MB-231 [3]) [%] | growth at 10 µM (HCT-116 [4]) [%] | also measured
17 | 109 | COC(=O)c1cc(NCc2cccc(Br)c2)ccc1C1CCOCC1 | 58.8 | 40.1 | 
18 | 62.3 | COC(=O)c1cc(NCc2ccccc2F)ccc1C1CCOCC1 | 17.6 | 9.5 | 
19 | 110 | COC(=O)c1cc(NCc2ccc(Br)cc2)ccc1C1CCOCC1 | 79.6 | 61.2 | 
20 | 80.7 | O=C(NO)c1cc(NCc2ccccc2)ccc1C1CCOCC1 | 90 | 80.2 | 
21 | 112 | O=C(O)c1cc(NCc2ccc(Cl)cc2)ccc1C1CCOCC1 | 115 | 101 | 
22 | 82.8 | O=C(NO)c1cc(NCc2ccccc2Cl)ccc1C1CCOCC1 | 86.8 | 86.7 | 
23 | 101 | COC(=O)c1cc(NCc2ccccc2Cl)ccc1C1CCOCC1 | 25.9 | 25.9 | 
24 | 80.6 | COc1cccc(CNc2ccc(C3CCOCC3)c(C(=O)NO)c2)c1 | 89.2 | 94.4 | 
25 | 80.7 | COc1ccccc1CNc1ccc(C2CCOCC2)c(C(=O)NO)c1 | 80.7 | 93.3 | 
26 | 106 | COc1cccc(CNc2ccc(C3CCOCC3)c(C(=O)O)c2)c1 | 104 | 101 | 
27 | 77.2 | COC(=O)c1cc(NCc2ccccc2)ccc1C1CCOCC1 | 29.3 | 19.8 | 
28 | 113 | O=C(O)c1cc(NCc2cccc(Br)c2)ccc1C1CCOCC1 | 107 | 104 | 
29 | 93.7 | O=C(NO)c1cc(NCc2ccc(F)cc2)ccc1C1CCOCC1 | 86.6 | 91.6 | 
30 | 75.5 | O=C(NO)c1cc(NCc2ccccc2Br)ccc1C1CCOCC1 | 74 | 78.3 | 
31 | 94.7 | COC(=O)c1cc(NCc2ccccc2OC)ccc1C1CCOCC1 | 22 | 31.2 | 
32 | 104 | COc1ccc(CNc2ccc(C3CCOCC3)c(C(=O)O)c2)cc1 | 102 | 93.6 | 

Second part, the compound before the results:

Row | Compound | Activity (Bacillus cereus) [%] | growth at 10 µM (MDA-MB-231 [3]) [%] | growth at 10 µM (HCT-116 [4]) [%] | also measured
33 | CN(Cc1ccccc1Cl)c1ccc(N2CCOCC2)c(C(=O)NO)c1 |  | 4.3 | 4.8 | IC50 (HCT-116 [1]): 3.4 µM; IC50 (MDA-MB-231 [2]): 1100 nM
34 | O=C(O)c1ccc(NCc2ccccc2Cl)cc1N1CCOCC1 | 50.8 | 88 | 87.6 | Stability [5]: Stable
35 | COc1ccccc1CNc1ccc(C(=O)O)c(N2CCOCC2)c1 | 105 | 92.6 | 102 | 
36 | COC(=O)c1ccc(NCc2cccc(Br)c2)cc1N1CCOCC1 | 97.4 | 62.9 | 34.7 | 
37 | COC(=O)c1ccc(NCc2ccc(Br)cc2)cc1N1CCOCC1 | 103 | 68.9 | 52.5 | 
38 | COC(=O)c1ccc(NCc2cccc(Cl)c2)cc1N1CCOCC1 | 55.8 | 68.9 | 44.3 | 
39 | O=C(NO)c1cc(NCc2cccc(Br)c2)ccc1N1CCOCC1 |  |  | 1.9 | IC50 (HCT-116 [1]): 5.8 µM; IC50 (MDA-MB-231 [2]): 3300 nM
40 | COC(=O)c1ccc(NCc2ccccc2F)cc1N1CCOCC1 | 105 | 92.8 | 67.4 | 
41 | COC(=O)c1ccc(NCc2ccccc2Cl)cc1N1CCOCC1 | 75.9 | 70.4 | 43.2 | 
42 | O=C(O)c1ccc(NCc2cccc(F)c2)cc1N1CCOCC1 | 84.9 | 92.4 | 93.3 | 
43 | O=C(O)c1ccc(NCc2cccc(Cl)c2)cc1N1CCOCC1 | 33.1 | 87.2 | 88.6 | 
44 | CCOc1ccc2ccc(=O)oc2c1 [ETHOXYCOUMARIN] |  |  |  | Stability ([6]; microsomes, 1 h, 10 µM): Stable; Stability ([7]; microsomes, 1 h, 10 µM): Unstable
45 | O=C(NO)c1cc(NCc2ccccc2Cl)ccc1N1CCOCC1 |  | 11.7 | 2 | IC50 (HCT-116 [1]): 4.9 µM; IC50 (MDA-MB-231 [2]): 2900 nM
46 | COc1ccc(CNc2ccc(C(=O)O)c(N3CCOCC3)c2)cc1 | 106 | 110 | 105 | 
47 | O=C(O)c1ccc(NCc2ccc(Br)cc2)cc1N1CCOCC1 | 99.1 | 99.7 | 101 | 
48 | CN(Cc1ccccc1Cl)c1ccc(N2CCOCC2)c(C(=O)O)c1 |  | 95.5 | 87.8 | % remaining at 1 h, 10 µM ([6]; Sprague-Dawley, rat microsomes): 94%
49 | O=C(NO)c1ccc(NCc2ccccc2)cc1N1CCOCC1 | 43.4 | 85.7 | 89.7 | 
50 | COC(=O)c1ccc(NCc2ccccc2)cc1N1CCOCC1 | 102 | 95.2 | 85.4 | 
51 | O=C(O)c1ccc(NCc2ccc(Cl)cc2)cc1N1CCOCC1 | 32.4 | 88.4 | 88.2 | 
52 | O=C(O)c1ccc(NCc2cccc(Br)c2)cc1N1CCOCC1 | 95.8 | 104 | 101 | 
53 | O=C(NO)c1ccc(NCc2ccccc2Br)cc1N1CCOCC1 | 54.7 | 30 | 54.5 | 
54 | COC(=O)c1ccc(NCc2ccccc2Br)cc1N1CCOCC1 | 36.3 | 51.3 | 29.5 | 
55 | COC(=O)c1ccc(NCc2ccc(Cl)cc2)cc1N1CCOCC1 | 41.3 | 70.3 | 43.8 | 
56 | COC(=O)c1ccc(NCc2cccc(F)c2)cc1N1CCOCC1 | 78.9 | 85.9 | 71 | 
57 | O=C(O)c1cc(NCc2ccccc2Cl)ccc1N1CCOCC1 |  |  |  | metabolised at 1 h, 10 µM ([7]; Sprague-Dawley, rat microsomes, read-out: Drug degradation): 17%
58 | O=C(NO)c1ccc(NCc2ccccc2F)cc1N1CCOCC1 | 50.9 | 79.6 | 87.6 | 
